For test [1], the target named is Intestinal-type alkaline phosphatase (Mus musculus, UniProt P24822). Description: PubChem AID 488785. It is filed as functional.
Test [2] has as its target T1, Alkaline phosphatase, tissue-nonspecific isozyme (Homo sapiens, UniProt P05186).
T1 sequence (P05186 whole entry): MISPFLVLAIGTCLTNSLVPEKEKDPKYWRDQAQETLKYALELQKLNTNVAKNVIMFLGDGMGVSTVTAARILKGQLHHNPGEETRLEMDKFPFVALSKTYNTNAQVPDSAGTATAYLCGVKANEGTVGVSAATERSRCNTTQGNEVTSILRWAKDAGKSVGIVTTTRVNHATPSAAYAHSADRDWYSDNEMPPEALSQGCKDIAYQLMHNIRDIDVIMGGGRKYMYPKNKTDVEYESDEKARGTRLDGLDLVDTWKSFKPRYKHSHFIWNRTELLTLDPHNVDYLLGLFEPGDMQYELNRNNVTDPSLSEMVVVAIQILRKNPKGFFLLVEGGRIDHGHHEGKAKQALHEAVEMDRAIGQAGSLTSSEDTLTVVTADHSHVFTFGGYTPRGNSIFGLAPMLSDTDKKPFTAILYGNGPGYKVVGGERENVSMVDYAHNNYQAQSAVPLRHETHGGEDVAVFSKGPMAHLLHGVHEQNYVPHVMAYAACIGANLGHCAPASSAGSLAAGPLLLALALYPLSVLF
Description: TNAP enzyme inhibition by screening hits, dose response, selectivity assay for mouse IAP inhibitor project, biochemical, human TNAP, uHTS hits (AID 488906). It is filed as functional.

Test [3] deals with Intestinal-type alkaline phosphatase (Homo sapiens, UniProt P09923). The experiment in a line: inhibition of human intestinal alkaline phosphatase – biochemical, dose response (AID 488876). It is filed as functional.
Intestinal-type alkaline phosphatase (Homo sapiens, UniProt P09923), sequence (P09923 whole entry): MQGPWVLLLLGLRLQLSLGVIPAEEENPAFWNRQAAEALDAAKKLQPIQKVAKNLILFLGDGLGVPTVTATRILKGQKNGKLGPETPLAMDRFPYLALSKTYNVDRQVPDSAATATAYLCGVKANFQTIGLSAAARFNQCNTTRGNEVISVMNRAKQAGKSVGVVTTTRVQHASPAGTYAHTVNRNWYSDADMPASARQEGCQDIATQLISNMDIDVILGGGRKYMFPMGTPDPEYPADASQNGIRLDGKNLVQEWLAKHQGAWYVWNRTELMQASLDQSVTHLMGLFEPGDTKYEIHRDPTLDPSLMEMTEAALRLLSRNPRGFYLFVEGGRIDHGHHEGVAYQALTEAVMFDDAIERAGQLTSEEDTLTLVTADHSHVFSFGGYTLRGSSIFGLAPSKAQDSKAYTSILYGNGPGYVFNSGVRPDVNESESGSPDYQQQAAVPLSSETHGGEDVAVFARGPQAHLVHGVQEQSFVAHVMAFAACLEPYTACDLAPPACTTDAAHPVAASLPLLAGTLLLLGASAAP
The target in test [4] is T2, Long-chain-fatty-acid--AMP ligase FadD28 (Mycobacterium tuberculosis, UniProt P9WQ59).
T2 sequence (P9WQ59 whole entry): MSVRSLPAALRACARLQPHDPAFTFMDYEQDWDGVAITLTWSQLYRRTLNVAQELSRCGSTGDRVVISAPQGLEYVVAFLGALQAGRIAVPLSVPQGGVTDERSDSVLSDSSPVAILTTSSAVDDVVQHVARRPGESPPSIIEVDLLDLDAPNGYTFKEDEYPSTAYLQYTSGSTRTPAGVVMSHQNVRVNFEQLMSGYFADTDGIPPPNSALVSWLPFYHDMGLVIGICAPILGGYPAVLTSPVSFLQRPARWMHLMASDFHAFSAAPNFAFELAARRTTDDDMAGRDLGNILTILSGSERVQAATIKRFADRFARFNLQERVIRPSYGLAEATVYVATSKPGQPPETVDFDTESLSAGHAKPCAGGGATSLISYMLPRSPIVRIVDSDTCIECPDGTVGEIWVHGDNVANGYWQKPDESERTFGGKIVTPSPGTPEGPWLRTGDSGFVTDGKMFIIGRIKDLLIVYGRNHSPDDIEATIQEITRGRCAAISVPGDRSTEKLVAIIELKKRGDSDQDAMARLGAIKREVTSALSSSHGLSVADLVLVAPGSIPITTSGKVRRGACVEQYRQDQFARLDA
The experiment in a line: Fluorescence polarization aasay to screen for inhibitors that compete for the binding of FadD28 to a bisubstrate Measured in Biochemical System Using Plate Reader - 2147-01_Inhibitor_Dose_CherryPick_Activity. It is filed as functional, Mycobacterium tuberculosis H37Rv. For orientation: Fluorescence polarisation rises when a labelled molecule tumbles more slowly, as on binding a larger partner.

The target in test [5] is T3, Tyrosine-protein phosphatase non-receptor type 7 (Homo sapiens, UniProt P35236).
T3 sequence (P35236 whole entry): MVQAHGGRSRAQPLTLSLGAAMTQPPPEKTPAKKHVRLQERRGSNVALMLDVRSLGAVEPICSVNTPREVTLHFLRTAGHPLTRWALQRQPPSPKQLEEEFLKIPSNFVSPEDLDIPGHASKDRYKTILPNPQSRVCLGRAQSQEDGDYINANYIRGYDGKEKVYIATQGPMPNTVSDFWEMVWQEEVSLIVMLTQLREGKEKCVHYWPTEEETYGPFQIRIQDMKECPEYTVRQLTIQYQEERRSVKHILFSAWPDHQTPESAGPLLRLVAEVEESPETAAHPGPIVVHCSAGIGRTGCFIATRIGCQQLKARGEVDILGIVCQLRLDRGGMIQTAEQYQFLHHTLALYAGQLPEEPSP
It is filed as functional.

For test [6], the target named is T4, Tyrosine-protein phosphatase non-receptor type 22 (Homo sapiens, UniProt Q9Y2R2).
T4 sequence (Q9Y2R2 whole entry): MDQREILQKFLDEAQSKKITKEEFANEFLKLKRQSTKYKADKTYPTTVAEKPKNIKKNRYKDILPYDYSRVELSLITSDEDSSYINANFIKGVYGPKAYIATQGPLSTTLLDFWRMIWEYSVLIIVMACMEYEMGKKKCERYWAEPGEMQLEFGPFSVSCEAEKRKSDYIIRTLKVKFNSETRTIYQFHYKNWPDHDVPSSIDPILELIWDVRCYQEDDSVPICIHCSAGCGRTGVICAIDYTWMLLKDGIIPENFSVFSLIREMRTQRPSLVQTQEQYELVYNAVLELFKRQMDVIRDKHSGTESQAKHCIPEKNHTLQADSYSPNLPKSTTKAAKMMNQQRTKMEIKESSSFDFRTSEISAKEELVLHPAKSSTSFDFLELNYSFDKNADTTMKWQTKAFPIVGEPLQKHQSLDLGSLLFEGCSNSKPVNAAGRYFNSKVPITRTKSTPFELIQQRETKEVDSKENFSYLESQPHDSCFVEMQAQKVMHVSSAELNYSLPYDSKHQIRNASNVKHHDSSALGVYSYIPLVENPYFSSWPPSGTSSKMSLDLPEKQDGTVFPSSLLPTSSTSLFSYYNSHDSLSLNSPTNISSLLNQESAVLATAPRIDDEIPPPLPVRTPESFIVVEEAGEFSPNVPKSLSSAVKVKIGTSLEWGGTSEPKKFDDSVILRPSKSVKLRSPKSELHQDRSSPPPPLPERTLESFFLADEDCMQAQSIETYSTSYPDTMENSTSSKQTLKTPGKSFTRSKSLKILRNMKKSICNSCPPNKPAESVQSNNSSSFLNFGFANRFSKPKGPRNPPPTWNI
It is filed as functional.

Test [7] deals with T4, Tyrosine-protein phosphatase non-receptor type 22. It is filed as functional. The source holds these as a separate data set.
The target of test [8] is T5, Delta-type opioid receptor (Homo sapiens, UniProt P41143). Description: HTS Image-Based Screen for Antagonists of the DOR Receptor. [Related pubchem assays (depositor defined):AID1777, AID1785, AID1786, AID2133]. It is filed as functional.
T5 sequence (P41143 whole entry): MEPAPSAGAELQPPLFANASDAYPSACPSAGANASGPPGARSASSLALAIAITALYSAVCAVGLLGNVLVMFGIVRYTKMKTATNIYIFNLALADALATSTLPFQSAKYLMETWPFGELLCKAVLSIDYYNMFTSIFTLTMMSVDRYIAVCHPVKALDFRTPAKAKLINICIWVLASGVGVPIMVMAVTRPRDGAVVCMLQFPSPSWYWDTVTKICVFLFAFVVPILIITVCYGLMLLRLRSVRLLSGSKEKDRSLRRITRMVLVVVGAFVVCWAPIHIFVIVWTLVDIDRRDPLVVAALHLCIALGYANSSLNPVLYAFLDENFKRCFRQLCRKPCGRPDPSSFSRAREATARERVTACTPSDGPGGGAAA
For the next test, the target named is Mu-type opioid receptor (Homo sapiens, UniProt P35372). Description: HTS Image-Based Screen for Agonists of the MOR Receptor. [Related pubchem assays (depositor defined):AID1777, AID1785, AID1786, AID2133]. It is filed as functional.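 Also: imaging of beta-arrestin GFP recruitment into spots after receptor activation.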
Mu-type opioid receptor, sequence (P35372 whole entry): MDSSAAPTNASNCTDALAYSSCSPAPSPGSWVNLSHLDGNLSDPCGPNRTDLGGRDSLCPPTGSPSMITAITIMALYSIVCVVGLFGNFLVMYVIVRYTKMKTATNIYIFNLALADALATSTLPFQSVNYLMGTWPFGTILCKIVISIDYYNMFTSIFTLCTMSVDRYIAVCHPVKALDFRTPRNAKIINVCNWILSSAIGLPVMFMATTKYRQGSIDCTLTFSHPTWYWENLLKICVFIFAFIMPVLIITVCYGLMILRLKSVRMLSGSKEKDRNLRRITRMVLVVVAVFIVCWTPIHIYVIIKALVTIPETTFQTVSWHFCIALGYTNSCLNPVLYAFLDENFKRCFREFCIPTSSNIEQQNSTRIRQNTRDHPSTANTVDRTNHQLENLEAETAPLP
Test [9] addresses T5, Delta-type opioid receptor. The experiment in a line: HTS Image-Based Screen for Agonists of the DOR Receptor. [Related pubchem assays (depositor defined):AID1777, AID1786, AID2133]. It is filed as functional.
Test [10] can be described thus: inhibitors of intracellular T. cruzi replication, confirmation, NIH3T3 host cells, beta-gal luminescence (AID 2044).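 Also: intracellular parasites grown in NIH/3T3 mouse fibroblasts as host cells; luminescent beta-galactosidase reporter signal from transgenic T. cruzi replicating inside host cells; inhibitors lower the luminescence signal.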 It is filed as functional, cell-based.
Test [11] concerns the target T6, Kappa-type opioid receptor (Homo sapiens, UniProt P41145). It is filed as functional.
Test [12] in a line: cytotoxicity toward NIH3T3 fibroblasts, dose response, counter-screen, cell-based, ATP luminescence, mouse fibroblasts (AID 2010).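 Also: cells exposed to compound for about 90 hours before reading.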 It is filed as functional. Background: Counterscreens check selectivity or assay interference.
Test [13] deals with T7, Beta-galactosidase (Escherichia coli, UniProt Q8VNN2). It is filed as functional.
T7 sequence (Q8VNN2 whole entry): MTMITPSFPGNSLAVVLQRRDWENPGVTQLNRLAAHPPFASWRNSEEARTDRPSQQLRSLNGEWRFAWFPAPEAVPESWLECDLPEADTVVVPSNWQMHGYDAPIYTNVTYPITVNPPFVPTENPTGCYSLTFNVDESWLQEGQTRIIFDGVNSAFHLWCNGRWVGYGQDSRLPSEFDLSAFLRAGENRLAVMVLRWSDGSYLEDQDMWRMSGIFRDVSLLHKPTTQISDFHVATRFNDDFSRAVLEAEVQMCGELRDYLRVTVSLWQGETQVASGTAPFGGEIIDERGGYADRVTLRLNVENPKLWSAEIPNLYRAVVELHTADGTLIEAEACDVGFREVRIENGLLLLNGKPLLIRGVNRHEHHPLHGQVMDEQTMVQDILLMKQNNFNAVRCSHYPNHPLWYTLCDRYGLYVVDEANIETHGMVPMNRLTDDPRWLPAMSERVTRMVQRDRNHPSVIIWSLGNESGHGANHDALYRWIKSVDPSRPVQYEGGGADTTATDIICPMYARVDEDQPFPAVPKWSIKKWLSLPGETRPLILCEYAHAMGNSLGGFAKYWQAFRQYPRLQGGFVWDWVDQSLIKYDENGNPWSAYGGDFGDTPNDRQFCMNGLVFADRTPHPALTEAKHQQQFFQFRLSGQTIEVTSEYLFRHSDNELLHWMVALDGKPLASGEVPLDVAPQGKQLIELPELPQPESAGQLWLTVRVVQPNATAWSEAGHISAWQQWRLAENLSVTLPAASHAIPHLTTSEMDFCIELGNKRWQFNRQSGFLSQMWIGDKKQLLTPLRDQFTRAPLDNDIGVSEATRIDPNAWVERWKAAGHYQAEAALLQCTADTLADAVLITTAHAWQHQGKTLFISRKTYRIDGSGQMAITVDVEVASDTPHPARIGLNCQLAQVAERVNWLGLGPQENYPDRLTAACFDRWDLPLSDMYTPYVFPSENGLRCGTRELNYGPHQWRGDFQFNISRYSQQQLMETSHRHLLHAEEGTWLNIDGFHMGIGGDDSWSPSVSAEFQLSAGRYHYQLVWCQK
The target of test [14] is T6, Kappa-type opioid receptor. It is filed as functional. The source holds these as a separate data set.
For test [15], the target named is T8, C-C chemokine receptor type 6 (Homo sapiens, UniProt P51684).
T8 sequence (P51684 whole entry): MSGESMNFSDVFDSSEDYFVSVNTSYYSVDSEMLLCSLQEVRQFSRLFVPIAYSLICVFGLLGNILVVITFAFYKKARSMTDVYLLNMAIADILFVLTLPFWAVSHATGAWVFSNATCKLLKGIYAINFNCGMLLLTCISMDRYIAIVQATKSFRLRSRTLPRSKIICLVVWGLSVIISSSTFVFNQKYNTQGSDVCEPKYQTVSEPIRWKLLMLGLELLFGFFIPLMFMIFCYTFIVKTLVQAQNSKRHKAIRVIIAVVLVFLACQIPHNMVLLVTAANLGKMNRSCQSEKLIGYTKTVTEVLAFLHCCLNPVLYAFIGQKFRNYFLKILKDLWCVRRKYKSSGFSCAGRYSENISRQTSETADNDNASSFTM
The experiment in a line: CCR6 receptor antagonists, dose response, cell-based, luminescent beta-arrestin readout (AID 504728). It is filed as functional.

For test [16], the target named is T7, Beta-galactosidase. Description: beta-galactosidase enzyme inhibitors and activators, dose response, artefact control for CCR6 antagonist project, biochemical, E. coli enzyme, set 3 (AID 504712). It is filed as functional.
Another test has as its target Cytochrome P450 2C19 (Homo sapiens, UniProt P33261). The experiment in a line: Cytochrome panel assay with activity outcomes. Panel member name: p450-cyp2c19 Compounds with AC50 equal or less than 10 uM are considered active. Conditions: read-out: AC50. It is filed as functional.
For another test, the target named is Cytochrome P450 2C9 (Homo sapiens, UniProt P11712).
Cytochrome P450 2C9, sequence (P11712 whole entry): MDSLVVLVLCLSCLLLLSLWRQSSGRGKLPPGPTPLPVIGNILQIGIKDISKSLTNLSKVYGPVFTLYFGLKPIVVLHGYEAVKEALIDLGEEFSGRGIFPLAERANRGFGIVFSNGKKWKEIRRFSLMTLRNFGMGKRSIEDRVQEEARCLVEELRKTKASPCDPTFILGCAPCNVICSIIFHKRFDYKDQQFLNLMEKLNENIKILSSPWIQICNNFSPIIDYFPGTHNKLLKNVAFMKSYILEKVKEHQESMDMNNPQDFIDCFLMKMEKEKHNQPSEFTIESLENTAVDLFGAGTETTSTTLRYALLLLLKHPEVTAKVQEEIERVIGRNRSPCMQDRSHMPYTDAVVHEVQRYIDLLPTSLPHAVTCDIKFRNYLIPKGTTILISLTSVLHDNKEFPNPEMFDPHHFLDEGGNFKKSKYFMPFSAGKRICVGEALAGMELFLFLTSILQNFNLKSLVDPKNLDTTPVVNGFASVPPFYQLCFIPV
Test [17] has as its target T7, Beta-galactosidase. The experiment in a line: PubChem AID 485352. It is filed as functional.
Test [18] addresses T9, Type-1 angiotensin II receptor (Homo sapiens, UniProt P30556).
T9 sequence (P30556 whole entry): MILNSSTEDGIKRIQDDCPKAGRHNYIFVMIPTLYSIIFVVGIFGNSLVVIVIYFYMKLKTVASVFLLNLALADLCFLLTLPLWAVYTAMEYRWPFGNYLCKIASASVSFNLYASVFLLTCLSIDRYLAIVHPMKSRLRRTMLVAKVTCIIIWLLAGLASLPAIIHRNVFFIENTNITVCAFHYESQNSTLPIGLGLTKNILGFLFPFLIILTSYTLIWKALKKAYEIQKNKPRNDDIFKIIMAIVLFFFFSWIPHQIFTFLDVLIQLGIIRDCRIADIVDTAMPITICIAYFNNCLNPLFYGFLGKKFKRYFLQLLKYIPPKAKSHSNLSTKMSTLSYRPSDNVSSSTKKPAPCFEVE
Description: AT1 receptor antagonists, dose response, selectivity assay for APJ receptor antagonist project, cell-based, uHTS hits (AID 463214).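 Also: antagonist potency against angiotensin II stimulated AT1 response.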 It is filed as functional.

Test [19] has as its target Heat shock protein HSP 90-alpha (Homo sapiens, UniProt P07900). It is filed as functional, organism-based.
A further test deals with Exodeoxyribonuclease V (Escherichia coli (strain K12), UniProt P04993+P07648+P08394). The experiment in a line: E. coli RecBCD inhibitors, dose response, counter-screen for AddAB inhibitor project, absorbance, V66 E. coli, mutant T4 phage (AID 492957). It is filed as functional, cell-based, Escherichia coli str. K-12 substr. MG1655.
Test [20] can be described thus: Counterscreen for AddAB inhibitors: absorbance-based bacterial cell-based high throughput dose response assay for inhibitors of bacterial viability. [Related pubchem assays (depositor defined):AID435030, AID449728, AID449731, AID488942, AID488955, AID488956]. It is filed as functional.

The source made the active and inactive calls. Some results are limits rather than exact numbers.

What is called IC50 is the concentration that gives 50% inhibition. As usually defined, the AC50 is the midpoint of the concentration-response curve, whichever way the signal moves. The term EC50 denotes the concentration giving half of the maximal effect.

Intestinal-type alkaline phosphatase (Mus musculus, UniProt P24822), sequence (P24822 whole entry): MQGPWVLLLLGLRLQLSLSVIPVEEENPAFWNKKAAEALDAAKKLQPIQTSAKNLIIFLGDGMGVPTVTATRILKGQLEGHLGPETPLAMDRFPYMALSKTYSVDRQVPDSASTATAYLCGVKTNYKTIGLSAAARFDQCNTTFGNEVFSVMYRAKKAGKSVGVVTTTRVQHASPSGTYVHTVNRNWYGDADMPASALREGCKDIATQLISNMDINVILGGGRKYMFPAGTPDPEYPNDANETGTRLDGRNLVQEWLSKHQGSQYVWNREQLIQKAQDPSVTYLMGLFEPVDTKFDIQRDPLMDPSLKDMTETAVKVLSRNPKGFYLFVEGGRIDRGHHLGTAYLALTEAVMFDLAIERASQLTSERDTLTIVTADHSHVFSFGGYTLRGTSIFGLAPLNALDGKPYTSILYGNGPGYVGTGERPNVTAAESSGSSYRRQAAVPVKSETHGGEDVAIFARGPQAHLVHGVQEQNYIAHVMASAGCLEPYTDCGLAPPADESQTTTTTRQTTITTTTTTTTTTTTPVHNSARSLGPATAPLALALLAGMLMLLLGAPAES
T6 sequence (P41145 whole entry): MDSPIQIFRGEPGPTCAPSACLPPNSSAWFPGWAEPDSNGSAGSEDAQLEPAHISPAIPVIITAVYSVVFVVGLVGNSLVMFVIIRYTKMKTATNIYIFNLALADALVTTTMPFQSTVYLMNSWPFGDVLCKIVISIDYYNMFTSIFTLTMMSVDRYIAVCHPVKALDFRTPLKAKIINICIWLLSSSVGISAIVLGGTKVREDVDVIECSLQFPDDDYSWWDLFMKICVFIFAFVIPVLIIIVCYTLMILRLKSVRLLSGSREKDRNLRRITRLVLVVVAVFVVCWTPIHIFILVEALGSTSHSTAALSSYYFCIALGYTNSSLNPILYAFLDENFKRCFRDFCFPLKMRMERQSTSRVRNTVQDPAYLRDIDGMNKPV
Cytochrome P450 2C19, sequence (P33261 whole entry): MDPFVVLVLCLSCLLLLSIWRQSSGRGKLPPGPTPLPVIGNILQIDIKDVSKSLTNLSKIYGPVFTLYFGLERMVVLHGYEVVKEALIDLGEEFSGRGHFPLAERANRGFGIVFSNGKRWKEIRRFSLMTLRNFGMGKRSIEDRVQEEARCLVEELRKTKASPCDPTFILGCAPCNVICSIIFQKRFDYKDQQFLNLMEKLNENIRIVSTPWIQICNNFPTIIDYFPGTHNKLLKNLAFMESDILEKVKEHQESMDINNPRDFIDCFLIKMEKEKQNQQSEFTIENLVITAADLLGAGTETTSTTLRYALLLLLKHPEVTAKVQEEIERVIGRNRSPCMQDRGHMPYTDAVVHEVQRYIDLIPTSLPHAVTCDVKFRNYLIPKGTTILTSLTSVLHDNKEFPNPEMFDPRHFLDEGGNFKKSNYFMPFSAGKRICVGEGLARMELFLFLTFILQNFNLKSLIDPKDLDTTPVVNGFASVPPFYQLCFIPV

For the molecule `O=C(NN1C(=O)/C(=C/c2ccc(O)cc2)SC1=S)c1ccccc1O`, the IC50 in test [1] is 4.68 µM (active); in test [2], > 100 µM (inactive); in test [3] it was > 100 µM (inactive). In addition, in [4], the concentration at half-maximal activity (AC50) was 61.9 µM (active).

`O=C(CCN1C(=O)C2CC=C(Cl)CC2C1=O)NCc1ccco1` (stereo not drawn): the IC50 in test [5], in [6] and in [7] was > 79.4 µM (inactive) in each case.

Turning to `O=C(Nc1nccs1)c1sc2cc(Cl)ccc2c1Cl`, the IC50 in test [8] was > 32 µM (inactive); in test [11], 9.5 µM (active); in test [14], > 32 µM; in [15], > 66.6 µM (inactive); at Beta-galactosidase [16], > 66.6 µM (inactive). The EC50 on Mu-type opioid receptor was > 32 µM (inactive); in test [9] it was > 32 µM (inactive); in test [10], 2.31 µM (active); in test [12], 17.9 µM (active); on Beta-galactosidase [13], > 31.5 µM (inactive). The AC50 at Cytochrome P450 2C19 is 0.631 µM (inconclusive); on Cytochrome P450 2C9 it was 0.891 µM (inconclusive).

On to `COc1cc(/C=C/[N+](=O)[O-])ccc1OC(=O)c1cc2ccccc2oc1=O`, for which the EC50 on Beta-galactosidase [17] is > 40 µM (inactive). Moreover, the IC50 in [18] was 10.4 µM (active); in test [1] it was 13 µM (active); in test [2] it was > 100 µM (inactive); in [3], > 100 µM (inactive). In addition, the AC50 in test [19] was 1.01 µM (active).

In the case of `O=C1c2ccccc2NC(c2ccc(-c3ccc(C(F)(F)F)cc3)o2)N1O` (stereo not drawn), the IC50 (on Exodeoxyribonuclease V; in test [20]) was > 119 µM (inactive) throughout. For the same molecule, the AC50 in [19] is 7.23 µM (active).
